Measurements published in patent publication US11225474B2, “Crystalline salt forms of 3-(1,2,4-triazolo[4,3-a]pyridine-3-ylethynyl)-4-methyl-N-(4-((4-methylpiperazin-1-yl)methyl)-3-trifluoromethylphenyl)benzamide for medical application” (priority 2016, dated 2022).

What was measured:
physchem = format: physicochemical
[1] = Stability, 7 days at T = 60° C.; format: physicochemical
[2] = Hygroscopicity by gravimetric moisture absorption; format: physicochemical; details: relative air humidity of 90%
Description: Samples were also studied using the following methods: polarization microscopy (Leica DMRB Polarized Microscope, resolution of 1600×1200)—to confirm crystallinity, ion chromatography—to confirm anion and cation stoichiometric proportion, differential scanning calorimetry (DSC) and thermogravimetric analysis (TGA)—to confirm composition and study of temperature stability of samples; ^1H NMR (500 MHz Bruker AVANCE 500.13 MHz, solvent DMSO-d6)—to confirm structure, assess purity and content of organic solvents; gravimetric moisture absorption—to assess hygroscopicity. DSC was carried out using Mettler 822e DSC apparatus. The measuring system was calibrated according to ISO 11357-1 standard based on standard substances phase changes (C6H12; Hg; benzoic acid; Ga; KNO3; In; Sn; Bi; CsCl; purity grade 99.99%). Temperature calibration regular error (determined based on In) is 0.1°. Samples were tested in standard aluminum cells in the artificial air flow at a temperature range of 30-300° C. with heating speed of 10°/min. TG measurements were taken using Mettler 851e SDTA/TGA TG analyzer. The apparatus was calibrated using standard substances melting points (Ag; Al; Bi; In; Sn; purity grade of 99.99%). Weighing error is NMT 0.1% (determined using CaC2O4·2H2O standard). The test was carried out in a standard open aluminum container in the artificial air flow at a temperature range of 30-150° C. with heating speed of 10°/min. To avoid dehydration, the material was not exposed to mechanical treatment before taking measurements.

FYN = FYN (Homo sapiens, UniProt P06241); assay: Human kinase panel at 100 nM; format: biochemical
FYN, sequence (P06241 whole entry): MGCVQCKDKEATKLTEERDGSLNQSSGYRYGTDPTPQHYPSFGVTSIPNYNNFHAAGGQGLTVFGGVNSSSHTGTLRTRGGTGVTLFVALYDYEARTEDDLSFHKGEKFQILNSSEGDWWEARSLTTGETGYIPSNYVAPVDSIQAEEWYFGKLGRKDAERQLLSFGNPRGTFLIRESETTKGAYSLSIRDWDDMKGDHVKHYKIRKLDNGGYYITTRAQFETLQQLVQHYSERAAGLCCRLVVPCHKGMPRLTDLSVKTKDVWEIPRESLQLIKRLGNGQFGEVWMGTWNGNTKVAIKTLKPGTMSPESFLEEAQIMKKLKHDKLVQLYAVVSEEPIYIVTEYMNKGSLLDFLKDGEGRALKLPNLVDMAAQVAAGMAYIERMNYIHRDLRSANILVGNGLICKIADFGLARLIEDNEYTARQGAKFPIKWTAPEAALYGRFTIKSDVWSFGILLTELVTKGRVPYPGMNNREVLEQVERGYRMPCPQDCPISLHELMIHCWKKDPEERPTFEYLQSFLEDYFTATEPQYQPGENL

KDR/VEGFR2 = KDR/VEGFR2 (Homo sapiens, UniProt P35968); assay: Human kinase panel at 100 nM; format: biochemical
KDR/VEGFR2, sequence (P35968 20-1356): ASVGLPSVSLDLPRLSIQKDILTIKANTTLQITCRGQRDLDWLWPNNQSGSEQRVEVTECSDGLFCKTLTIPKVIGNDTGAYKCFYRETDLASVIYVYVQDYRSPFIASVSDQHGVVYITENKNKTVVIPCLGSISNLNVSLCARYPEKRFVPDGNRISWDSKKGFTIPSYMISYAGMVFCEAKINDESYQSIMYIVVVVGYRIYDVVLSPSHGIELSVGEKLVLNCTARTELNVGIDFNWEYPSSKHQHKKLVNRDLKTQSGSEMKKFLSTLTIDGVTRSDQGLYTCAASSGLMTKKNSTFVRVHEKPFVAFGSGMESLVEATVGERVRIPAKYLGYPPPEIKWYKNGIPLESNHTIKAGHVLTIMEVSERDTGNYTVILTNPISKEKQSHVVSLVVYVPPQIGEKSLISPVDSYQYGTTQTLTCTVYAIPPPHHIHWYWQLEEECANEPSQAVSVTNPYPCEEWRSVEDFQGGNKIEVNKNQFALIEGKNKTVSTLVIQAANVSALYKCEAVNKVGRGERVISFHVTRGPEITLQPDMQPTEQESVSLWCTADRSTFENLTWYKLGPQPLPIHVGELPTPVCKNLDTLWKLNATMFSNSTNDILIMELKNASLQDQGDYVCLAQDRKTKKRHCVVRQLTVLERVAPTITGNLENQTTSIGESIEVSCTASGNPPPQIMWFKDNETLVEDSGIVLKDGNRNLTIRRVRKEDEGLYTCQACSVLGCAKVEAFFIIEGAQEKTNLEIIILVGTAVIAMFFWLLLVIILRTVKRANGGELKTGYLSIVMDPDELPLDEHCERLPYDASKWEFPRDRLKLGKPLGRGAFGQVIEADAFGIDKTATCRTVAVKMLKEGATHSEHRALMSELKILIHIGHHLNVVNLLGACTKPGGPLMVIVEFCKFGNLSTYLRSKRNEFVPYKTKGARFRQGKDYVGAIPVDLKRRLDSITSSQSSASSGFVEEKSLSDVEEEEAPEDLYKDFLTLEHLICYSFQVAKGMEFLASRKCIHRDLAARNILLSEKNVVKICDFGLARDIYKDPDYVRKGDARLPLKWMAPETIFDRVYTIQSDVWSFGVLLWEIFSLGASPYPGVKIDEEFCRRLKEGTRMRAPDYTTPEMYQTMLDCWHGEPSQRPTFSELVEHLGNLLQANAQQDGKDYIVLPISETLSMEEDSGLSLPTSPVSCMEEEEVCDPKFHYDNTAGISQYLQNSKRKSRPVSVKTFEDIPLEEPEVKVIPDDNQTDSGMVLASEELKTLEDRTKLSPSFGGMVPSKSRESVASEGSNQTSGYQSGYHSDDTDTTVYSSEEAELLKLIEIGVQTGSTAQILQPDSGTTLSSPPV

PDGFRb = PDGFRb (Homo sapiens, UniProt P09619); assay: Human kinase panel at 100 nM; format: biochemical
RIPK3 = RIPK3 (Homo sapiens, UniProt Q9Y572); assay: Human kinase panel at 100 nM; format: biochemical
RIPK3, sequence (Q9Y572 whole entry): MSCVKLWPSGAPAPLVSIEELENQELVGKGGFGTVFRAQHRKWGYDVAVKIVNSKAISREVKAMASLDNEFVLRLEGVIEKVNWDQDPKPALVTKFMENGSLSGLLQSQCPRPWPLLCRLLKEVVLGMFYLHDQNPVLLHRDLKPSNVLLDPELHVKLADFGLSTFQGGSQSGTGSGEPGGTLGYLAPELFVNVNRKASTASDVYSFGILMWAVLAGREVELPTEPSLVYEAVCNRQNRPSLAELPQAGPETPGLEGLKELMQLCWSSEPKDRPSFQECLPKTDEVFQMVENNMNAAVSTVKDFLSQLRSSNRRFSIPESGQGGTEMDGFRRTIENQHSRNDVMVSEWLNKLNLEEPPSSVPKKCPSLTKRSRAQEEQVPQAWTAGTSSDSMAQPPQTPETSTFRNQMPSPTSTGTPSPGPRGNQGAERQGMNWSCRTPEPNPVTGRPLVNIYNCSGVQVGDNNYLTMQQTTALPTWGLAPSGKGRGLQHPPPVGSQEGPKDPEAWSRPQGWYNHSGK

ZAK/MLTK = ZAK/MLTK (Homo sapiens, UniProt Q9NYL2); assay: Human kinase panel at 100 nM; format: biochemical
ZAK/MLTK, sequence (Q9NYL2 whole entry): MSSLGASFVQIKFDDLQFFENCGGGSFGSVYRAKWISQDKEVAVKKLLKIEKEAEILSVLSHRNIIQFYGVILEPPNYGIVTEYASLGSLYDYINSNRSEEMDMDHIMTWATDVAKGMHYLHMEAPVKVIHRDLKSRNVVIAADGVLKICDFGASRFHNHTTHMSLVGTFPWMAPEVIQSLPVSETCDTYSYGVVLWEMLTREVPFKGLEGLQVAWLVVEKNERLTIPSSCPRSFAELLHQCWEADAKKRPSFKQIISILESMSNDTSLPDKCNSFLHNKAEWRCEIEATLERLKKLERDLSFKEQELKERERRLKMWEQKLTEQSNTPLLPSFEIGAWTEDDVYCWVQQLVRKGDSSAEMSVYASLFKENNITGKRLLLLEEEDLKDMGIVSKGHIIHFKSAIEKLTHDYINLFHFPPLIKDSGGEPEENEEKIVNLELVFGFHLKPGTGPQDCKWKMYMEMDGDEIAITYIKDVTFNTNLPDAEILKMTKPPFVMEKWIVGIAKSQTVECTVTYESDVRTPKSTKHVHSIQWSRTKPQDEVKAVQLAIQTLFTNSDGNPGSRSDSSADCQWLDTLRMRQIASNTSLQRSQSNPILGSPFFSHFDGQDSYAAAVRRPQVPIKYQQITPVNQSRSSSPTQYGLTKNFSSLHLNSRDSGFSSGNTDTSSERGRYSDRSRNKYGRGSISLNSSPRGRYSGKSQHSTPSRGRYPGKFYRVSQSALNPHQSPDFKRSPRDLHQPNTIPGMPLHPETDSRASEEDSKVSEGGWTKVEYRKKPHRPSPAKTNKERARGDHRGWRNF

BV-173 = assay: Cytotoxicity, Ph+ CML model cell line; format: cell-based; details: Homo sapiens, read-out: IC50 (toxicity)
SupB15 = assay: Cytotoxicity, Ph+ ALL model cell line; format: cell-based; details: Homo sapiens, SUP-B15, read-out: IC50 (toxicity)
BaF3/BCR-ABL = assay: Toxicity to transduced BaF3 model tumor cell line; format: cell-based, murine; details: Mus musculus
BaF3/BCR-ABL Y253F = assay: Toxicity to transduced BaF3 model tumor cell line; format: cell-based, murine; details: Mus musculus
CCRF-CEM = assay: Cytotoxicity, acute lymphoblastic leukemia line; format: cell-based, human
EL4 = assay: Cytotoxicity, lymphoma line; format: cell-based, human
[3] = system: marrow cells obtained from C57BL/6N line mice with induced acute leukemia; assay: Acute leukemia mouse model; format: in vivo; details: oral, 40 mg/kg (34 mg/kg as free base), 2 weeks
Description: To induce the pathology, marrow cells obtained from C57BL/6N line mice with induced acute leukemia were used. Cells were injected to the tail vein of an animal following administration of a sub lethal dose of radiation. Therapy was initiated on the 5th day after pathology induction and continued for 2 weeks.

CYP2C8 = CYP2C8 (Homo sapiens, UniProt P10632); assay: Metabolism study using cytochrome enzyme drugs; format: in vitro ADME; details: 2C8
CYP2C8, sequence (P10632 whole entry): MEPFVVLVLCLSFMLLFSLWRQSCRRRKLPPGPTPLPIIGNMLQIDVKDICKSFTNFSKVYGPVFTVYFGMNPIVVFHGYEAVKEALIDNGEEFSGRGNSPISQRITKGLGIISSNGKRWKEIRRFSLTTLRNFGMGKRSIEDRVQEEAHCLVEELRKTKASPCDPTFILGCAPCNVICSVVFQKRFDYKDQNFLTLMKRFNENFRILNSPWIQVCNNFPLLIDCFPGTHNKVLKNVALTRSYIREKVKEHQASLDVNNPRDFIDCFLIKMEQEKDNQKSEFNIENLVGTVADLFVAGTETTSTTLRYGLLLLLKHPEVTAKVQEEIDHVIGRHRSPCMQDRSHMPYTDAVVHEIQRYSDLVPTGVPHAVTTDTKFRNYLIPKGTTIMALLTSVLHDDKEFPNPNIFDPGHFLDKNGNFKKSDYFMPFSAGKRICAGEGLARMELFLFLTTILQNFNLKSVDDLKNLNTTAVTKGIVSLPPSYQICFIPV

CYP2C9 = CYP2C9 (Homo sapiens, UniProt P11712); assay: Metabolism study using cytochrome enzyme drugs; format: in vitro ADME; details: 2C9
CYP2C9, sequence (P11712 whole entry): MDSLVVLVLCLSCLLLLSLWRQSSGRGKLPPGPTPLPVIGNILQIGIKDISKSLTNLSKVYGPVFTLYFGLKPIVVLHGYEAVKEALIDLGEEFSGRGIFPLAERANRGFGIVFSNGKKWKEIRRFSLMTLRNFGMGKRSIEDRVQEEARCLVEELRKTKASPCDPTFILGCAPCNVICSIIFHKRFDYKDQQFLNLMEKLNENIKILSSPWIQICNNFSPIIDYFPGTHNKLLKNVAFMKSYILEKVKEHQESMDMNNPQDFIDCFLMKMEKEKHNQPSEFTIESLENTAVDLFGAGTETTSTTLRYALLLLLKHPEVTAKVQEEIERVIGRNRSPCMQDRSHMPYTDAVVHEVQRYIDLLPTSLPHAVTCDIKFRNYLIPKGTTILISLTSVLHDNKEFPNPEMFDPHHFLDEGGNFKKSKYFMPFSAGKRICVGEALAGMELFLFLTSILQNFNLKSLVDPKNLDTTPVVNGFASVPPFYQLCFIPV

CYP2D6 = CYP2D6 (Homo sapiens, UniProt P10635); assay: Metabolism study using cytochrome enzyme drugs; format: in vitro ADME; details: 2D6
CYP2D6, sequence (P10635 whole entry): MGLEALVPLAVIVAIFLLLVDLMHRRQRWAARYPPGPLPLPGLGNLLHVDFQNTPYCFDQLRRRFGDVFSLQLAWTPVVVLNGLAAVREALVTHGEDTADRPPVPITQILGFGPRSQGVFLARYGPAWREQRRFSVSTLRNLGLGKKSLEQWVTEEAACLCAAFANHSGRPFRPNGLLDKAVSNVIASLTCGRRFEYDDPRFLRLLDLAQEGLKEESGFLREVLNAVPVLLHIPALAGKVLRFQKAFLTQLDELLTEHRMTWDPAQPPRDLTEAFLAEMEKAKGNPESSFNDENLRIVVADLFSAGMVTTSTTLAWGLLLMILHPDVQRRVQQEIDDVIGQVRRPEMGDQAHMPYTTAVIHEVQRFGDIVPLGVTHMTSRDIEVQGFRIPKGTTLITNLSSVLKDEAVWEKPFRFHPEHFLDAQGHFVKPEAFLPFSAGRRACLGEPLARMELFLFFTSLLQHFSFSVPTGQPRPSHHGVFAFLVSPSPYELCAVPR

rats = assay: Acute toxicity studies, rats; format: in vivo
Gene toxicity: Ames test = format: cell-based; details: all concentrations tested
murine marrow cells = assay: Gene toxicity: metaphase chromosome aberration assay; format: in vivo; details: all doses tested
HCT116 line cells = details: oral, 25 mg/kg (21 mg/kg as free base), 20 days
Description: To induce pathology, HCT116 line cells were used. Cells in the amount of 200 μL (2.5×10^7 cells/mL) were subcutaneously injected to the right side of thymus-deprived female mice (SCID). […] To determine the efficacy of tumor growth inhibition upon completion of treatment (20 days), the average size ratio was calculated between the therapeutic/control groups (% T/C).

A549 = details: oral, 25 mg/kg (21 mg/kg as free base), 20 days
Description: Thymus-deprived male mice were used in the studies. A549 (1×10^7 cells) were injected with 0.2 mL of matrigel solution (BD Pharmingen) into the left leg of a mouse under ketamine/xylazine anesthesia. In a week after the injections, mice were distributed between therapeutic and control groups that were randomized by tumor size. Oral administration of the methanesulfonic acid salt of 3-(1,2,4-triazolo[4,3-a]pyridine-3-ylethynyl)-4-methyl-N-(4-((4-methylpiperazine-1-yl)methyl)-3-trifluoromethylphenyl)benzamide at a dose of 25 mg/kg (equivalent to 21 mg/kg calculated as the free base) was started on the next day after randomization and continued for 20 days. To determine the efficacy of tumor growth inhibition, the average size ratio was calculated for the therapeutic/control groups (% T/C).

Bcr-Abl (H396P) = Bcr-Abl (H396P) (Homo sapiens, UniProt P00519, H396P, form not given); assay: Bcr-Abl tyrosine kinase enzyme activity
Bcr-Abl (M351T) = Bcr-Abl (M351T) (Homo sapiens, UniProt P00519, M351T, form not given); assay: Bcr-Abl tyrosine kinase enzyme activity
Bcr-Abl (Q252H) = Bcr-Abl (Q252H) (Homo sapiens, UniProt P00519, Q252H, form not given); assay: Bcr-Abl tyrosine kinase enzyme activity
Bcr-Abl (Y253F) = Bcr-Abl (Y253F) (Homo sapiens, UniProt P00519, Y253F, form not given); assay: Bcr-Abl tyrosine kinase enzyme activity

With `CS(=O)(=O)O.Cc1ccc(C(=O)Nc2ccc(CN3CCN(C)CC3)c(C(F)(F)F)c2)cc1C#Cc1nnc2ccccn12` [methanesulfonic acid salt, 3-(1,2,4-triazolo[4,3-a]pyridine-3-ylethynyl)-4-methyl-N-(4-((4-methylpiperazin-1-yl)methyl)-3-trifluoromethylphenyl)benzamide mono methanesulfonic acid salt] the Apparent solubility (physchem) was greater than 46 mg/mL, the solubility (physchem; deionized water, RT, read-out: Apparent solubility) was greater than 46 mg/mL and the “Crystallinity in 7 days” value ([1]; 7 days at T = 60° C.) was “Cryst”. The “Relative peak area, in 7 days” value ([1]; 7 days at T = 60° C.) was 99.7%, the “Relative peak area, initial” value ([1]; before storage) was 99.7% and the content of impurities ([1]; kept seven days at 60° C.) was “remained constant”. The “water absorbed (hygroscopicity)” value [2] was “less than two mass percent of water”, the inhibition at 0.1 µM (FYN) was greater than 50% and the inhibition at 0.1 µM (KDR/VEGFR2) was greater than 50%. It also gave an inhibition at 0.1 µM (PDGFRb) greater than 50%, an inhibition at 0.1 µM (RIPK3) greater than 50% and an inhibition at 0.1 µM (ZAK/MLTK) greater than 50%. For the same molecule, the IC50 (BV-173) was 5 nM, the IC50 (SupB15) was 50 nM and the IC50 (BaF3/BCR-ABL) was 5 nM. For the same molecule, the IC50 (BaF3/BCR-ABL Y253F) was 25 nM, the cytotoxicity (CCRF-CEM) was “showed cytotoxicity” and the cytotoxicity (EL4) was “showed cytotoxicity”. For the same molecule, the “increase of average lives compared to the control group” value [3] was “more than 25%”, the “participation of the isoform in metabolism” value (“participation of the isoform” below) (CYP2C8) was “does not involve” and the “participation of the isoform” value (CYP2C9) was “does not involve”. The “participation of the isoform” value (CYP2D6) was “does not involve”, the LD10 (rats; calculated as a free base) was 1,695 mg/kg and the LD10 (rats; dose of the salt) was 2,000 mg/kg. For the same molecule, the genotoxic effects (Gene toxicity: Ames test) was “had no genotoxic effects”, the genotoxic effects (murine marrow cells) was “had no genotoxic effects” and the Equilibrium solubility (deionized water, HPLC analysis, listed as HAL-G-196-20) was greater than 100 mg/mL. For the same molecule, the pH (equilibrium solubility test in water) was 3.6, the “Crystallinity in 24 h” value (solid in water, equilibrium solubility test) was “Dissolution” and the “solubility relative to the free base” value (water) was 10,000 fold. The “T/C (average tumor size ratio therapeutic/control)” value (HCT116 line cells) was less than 35%, the “T/C (average tumor size ratio therapeutic/control)” value (A549) was less than 35% and the “hemagglutinin and hemolysin levels in the blood” value (mice; intragastric administration (21 days), mice) was “had no effect on the hemagglutinin and hemolysin levels in the blood”. The “toxic immune effect (overall)” value (mice; mice) was “had no toxic immune effect”, the rosette test (mice; mouse, in vivo) was “no effect in the rosette test” and the “hemagglutinin and hemolysin level in the blood” value (mice; single intragastric administration, mice) was “had no effect on the hemagglutinin and hemolysin level in the blood”. The IC50 (Bcr-Abl (H396P)) was 1 nM, the IC50 (Bcr-Abl (M351T)) was 2.8 nM and the IC50 (Bcr-Abl (Q252H)) was 12 nM. It also gave an IC50 (Bcr-Abl (Y253F)) of 4.1 nM.
